Reference: patent publication US20230107216A1, “PANTETHEINE DERIVATIVES AND USES THEREOF” (Comet Therapeutics, Inc., priority 2018, published 2023)

Columns and labels:
[1] = tested on: primary fibroblasts GM00649, GM06225, GM00612, GM00444, GM03672; assay: MMP, ROS and ATP multiplex (ArrayScan); type: cell-based; details: Homo sapiens, Fibroblast, procedure Example 838, read-out: Decreased ROS by at least 10%; for inhibition at 50 µM: Leigh GM03672, 50 μM (table line r25)
Method: Cell culture and treatments. Primary adherent fibroblasts were cultured in minimum essential medium (MEM) (Gibco, 25030081) supplemented with 2 mM L-Glutamine (Gibco, 25030081), 15% fetal bovine serum (FBS) (Gibco, 26400044) and 1% penicillin/streptomycin (Gibco, 5140122) at 37° C. and 5% CO2. Cells were collected for either passaging or experiment at ˜70-80% confluence. Cells were obtained by trypsinization and seeded at 10000 cells/well in cell culture microplates (Seahorse Bioscience, 101085-004) and allowed to adhere for 16 hours in culture media. After media was refreshed with DMEM (Agilent Seahorse 103575-100) supplemented with 1 mM glucose and 10% FBS (Gibco, 26400044). At the end of the incubation period, the cells were loaded with the relevant dye/antibody for each cell health marker. The assay provided simultaneous measurement of cell health parameters including cell count, ROS formation (DHE), mitochondrial membrane potential (MitoTracker®) and cellular ATP content (CellTiter-Glo®, Promega). The plates were then scanned using an automated fluorescent cellular imager, ArrayScan® (Thermo Scientific Cellomics). Assay conditions were optimized by one skilled in the art.
Primary cells used in this example were obtained from Coriell Institute for Medical Research and consisted of GM00649, MSUD (Maple Syrup Urine Disease) Tyle IA; GM06225, Kearns-Sayre Syndrome; GM00612, MSUD (Maple Syrup Urine Disease) Tyle II GM00444, Pyruvate Carboxylase Deficiency and GM03672, Leigh Syndrome.

[2] = tested on: tyrosine hydroxylase positive mesencephalic neurons injured by MPP+; assay: Neuroprotective effect on damage induced by MPP+ on culture of mesencephalic neurons; type: cell-based; details: Rattus norvegicus, Neuron, MPP+ 50 μM, 48h, read-out: % reversion of TH positive neurons (MPTP-mediated degradation of dopaminergic neurons)
Text: A female Wistar rat (Janvier; France) of 15 days gestation was terminated by cervical dislocation, the fetuses were removed from the uterus and their brains were harvested and placed in ice-cold medium (Leibovitz's L15 medium, Gibco). Only ventral mesencephalic flexure was used for the cell preparations. The midbrain was dissociated by trypsinization. The reaction was stopped, and the suspension was triturated and centrifuged. The pellet of dissociated cells was resuspended in chemically defined medium consisted of Neurobasal (Gibco), containing B27 supplement (Gibco) and L-glutamine (Gibco), 10 ng/ml (BDNF; Pepro Tech, France) and 1 ng/ml (GDNF; Pepro Tech).
Viable primary rat embryo mesencephalic cells were counted and seeded on 96-multi-wells plate precoated with poly-L-lysine. Cells were maintained in a humidified incubator at 37° C. in 5% CO2-95% air atmosphere and medium changed on day 2. On day 6, the culture medium was removed and replaced by new media without neurotrophic factors containing the compounds of the present disclosure (50-10 μM) or vehicle (0.1% DMSO). After 1h exposure, injury of mesencephalon neuronal cultures was induced by MPP^+ (50 μM) for further 48h. A mixture of the growth factors GDNF (1 ng/ml) and BDNF (10 ng/ml) were used as reference compound. On day 8, the tyrosine hydroxylase positive neurons were evaluated. Cultures were fixed 30 min at 4° C. with paraformaldehyde in PBS (4%, Thermo Scientific, 28908). After, cells were permeabilized with 0.1% Triton X100 for 30 min, saturated with PBS containing 3% of BSA (bovine serum albumin) and incubated 2h with anti-tyrosine hydroxylase antibody (Sigma, 1:10000; clone TH-2) at 1/10000 in PBS containing 0.5% of BSA. Cells were washed three times with PBS containing 0.5% of BSA and incubated 1h with goat anti mouse antibody coupled with AF488 (Invitrogen A11001) diluted at 1/1000 in PBS containing 0.5% of BSA. Finally, nuclei were stained with DAPI at 1/1000 in PBS containing 0.5% of BSA. After rinsing with PBS, the plate was visualized and examined with Cell Insight HCS (Thermo Scientific) to determine the number of tyrosine hydroxylase positive cells per well.
The results for each well were expressed as a percentage by setting the density of tyrosine hydroxylase positive cells under control conditions to 100%. Then the result for each condition was reported as mean±SEM from 4 independent cultures.
A global analysis of the data was performed using a one-way analysis of variance (ANOVA), followed by Fisher's Protected Least Significant Difference when applicable. The level of significance was set to p<0.05.

Row | Structure (SMILES) | inhibition at 50 µM [1] | inhibition at 5 µM ([1]; PC GM00444, 5 μM) | inhibition at 10 µM [2]
1 | CC(C)(CO)[C@@H](O)C(=O)NCCC(=O)NCCSC(=O)CC(=O)CCC(=O)O [Compound 2, 6-[(2-[3-[(2R)-2,4-dihydroxy-3,3-dimethylbutanamido]propanamido]ethyl)sulfanyl]-4,6-dioxohexanoic acid] | ≥ 10% | ≥ 10% | –
2 | CC(=O)OCC(C)(C)[C@@H](O)C(=O)NCCC(=O)NCCSC(=O)CC(=O)CCC(=O)O [Compound 140, 6-[(2-[3-[(2R)-4-(acetyloxy)-2-hydroxy-3,3-dimethylbutanamido]propanamido]ethyl)sulfanyl]-4,6-dioxohexanoic acid] | ≥ 10% | – | ≥ 60%
3 | CCC(=O)CC(=O)SCCNC(=O)CCNC(=O)[C@H](O)C(C)(C)CO [Compound 382, (2R)-2,4-dihydroxy-3,3-dimethyl-N-[2-([2-[(3-oxopentanoyl)sulfanyl]ethyl]carbamoyl)ethyl]butanamide] | ≥ 10% | – | –
4 | COC(=O)CC(C(C)=O)C(=O)SCCNC(=O)CCNC(=O)[C@H](O)C(C)(C)CO (stereo partly drawn) [Compound 410] | ≥ 10% | – | ≥ 60%
5 | CC(C)(CO)[C@@H](O)C(=O)NCCC(=O)NCCSC(=O)CCCO [Compound 1304, (2R)-2,4-dihydroxy-N-[2-([2-[(4-hydroxybutanoyl)sulfanyl]ethyl]carbamoyl)ethyl]-3,3-dimethylbutanamide] | ≥ 10% | – | –
6 | C[C@H](O)CC(=O)CC(=O)SCCNC(=O)CCNC(=O)[C@H](O)C(C)(C)CO [Compound 1306, (2R)-2,4-dihydroxy-N-[2-[(2-[[(5S)-5-hydroxy-3-oxohexanoyl]sulfanyl]ethyl)carbamoyl]ethyl]-3,3-dimethylbutanamide] | ≥ 10% | – | –
